Reference: US20240208895A1, “BRANCHED-CHAIN AMINO ACID DERIVATIVES TO TREAT DISEASE” (INTRABIO LTD., priority 2021, published 2024)

Tests used:
Format in all cases: cell-based
PepT1 [1] = biological target: T1, PepT1 (Homo sapiens, UniProt P46059); test: PepT1 transporter-mediated cellular uptake (substrate test); details: uptake 3 min, 37° C.
T1 construct: expressed in transfected cells
T1 sequence (P46059 1-708): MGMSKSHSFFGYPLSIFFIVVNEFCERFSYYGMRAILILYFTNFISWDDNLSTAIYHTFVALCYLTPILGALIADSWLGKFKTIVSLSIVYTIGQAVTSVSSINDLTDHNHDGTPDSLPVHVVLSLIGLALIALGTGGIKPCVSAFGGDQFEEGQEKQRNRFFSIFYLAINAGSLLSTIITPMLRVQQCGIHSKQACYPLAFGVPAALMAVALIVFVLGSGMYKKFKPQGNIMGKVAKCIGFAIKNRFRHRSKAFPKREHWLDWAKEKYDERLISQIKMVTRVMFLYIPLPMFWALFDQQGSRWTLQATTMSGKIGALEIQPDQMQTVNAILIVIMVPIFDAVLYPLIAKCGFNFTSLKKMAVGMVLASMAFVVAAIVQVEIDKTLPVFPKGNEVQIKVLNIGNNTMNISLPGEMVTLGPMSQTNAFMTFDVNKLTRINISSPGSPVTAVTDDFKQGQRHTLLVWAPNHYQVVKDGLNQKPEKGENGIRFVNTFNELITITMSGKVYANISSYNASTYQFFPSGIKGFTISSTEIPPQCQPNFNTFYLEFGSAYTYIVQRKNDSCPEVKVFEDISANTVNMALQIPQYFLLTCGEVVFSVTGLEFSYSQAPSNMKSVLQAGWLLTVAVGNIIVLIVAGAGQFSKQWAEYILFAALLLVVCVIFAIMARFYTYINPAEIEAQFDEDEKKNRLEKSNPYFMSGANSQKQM
Protocol: (§1) DMSO (0.5%) was the solvent control (SC) and the known inhibitor for the positive control (PC) was losartan (200 μM). Data were fit to either the Michaelis-Menten equation for uptake or the Hill equation for inhibition using the solvent control to define the top and the positive control inhibitor to define the bottom. Symbols represent the mean±SEM, n=3.
(§2) Human OAT1 (SLC22A6) and OAT3 (SLC22A8) overexpressing HEK-293 cells and control cells without transfected transporter (Corning® TransportoCells™) are plated to 24-well plates and cellular uptake of 10 to 100 μg/mL of a Compound of the Disclosure is measured in the absence and presence of transporter inhibitors. Uptake of a Compound of the Disclosure into control cells is measured only without chemical inhibitors. […] Cells are grown in DMEM (Gibco 4196, high glucose, without sodium pyruvate) supplemented with MEM non-essential amino acids and 10% fetal bovine serum. Cells are re-fed with fresh medium after attachment (4-6 hours post-seeding). Cell are plated at a density of 4×10^5/well in 24-well plates coated with poly-D-lysine. Transporter assays are conducted in 400 μL of HBSS supplemented with 10 mM Hepes, pH 7.4
The known probe substrates used as positive controls are 3 μM chlorothiazide for OAT1, 2 μM estrone-3-sulfate for OAT3, 10 μM gabapentin for LAT1, 50 μM Gly-Sar for PepT1, 500 μM thiophene-2-glyoxylic acid for MCT1. […]

PepT1 [2] = biological target: T1, PepT1; test: Inhibition of PepT1 uptake of known substrate Gly-Sar; details: probe substrate Gly-Sar 50 μM
Protocol: as §1, with “FIG. 2(d) is a line graph showing the concentration-inhibition curves for the inhibition of uptake of known substrate dipeptide Gly-Sar (50 μM) for PepT1. DMSO” for “DMSO”
The known probe substrates used as positive controls are 3 μM chlorothiazide for OAT1, 2 μM estrone-3-sulfate for OAT3, 10 μM gabapentin for LAT1, 50 μM Gly-Sar for PepT1, 500 μM thiophene-2-glyoxylic acid for MCT1.
The IC50 value for the test item is determined by fitting the Hill equation in the following form:
where A % is the percent activity remaining (the mean cellular uptake observed in the solvent control sample set to 100% and the mean cellular uptake observed in the presence of the positive control inhibitor set to 0%), Top and Bottom are the upper and lower plateau of A %. [I] is the inhibitor concentration and IC50 is the inhibitor concentration where the remaining activity is at the midpoint between the Top and Bottom.

OAT1 (SLC22A6) = biological target: T2, OAT1 (SLC22A6) (Homo sapiens, UniProt Q4U2R8); test: Inhibition of OAT1 uptake of known substrate chlorothiazide; details: probe substrate chlorothiazide 3 μM
T2 construct: host or cells: HEK-293
T2 sequence (Q4U2R8 1-563): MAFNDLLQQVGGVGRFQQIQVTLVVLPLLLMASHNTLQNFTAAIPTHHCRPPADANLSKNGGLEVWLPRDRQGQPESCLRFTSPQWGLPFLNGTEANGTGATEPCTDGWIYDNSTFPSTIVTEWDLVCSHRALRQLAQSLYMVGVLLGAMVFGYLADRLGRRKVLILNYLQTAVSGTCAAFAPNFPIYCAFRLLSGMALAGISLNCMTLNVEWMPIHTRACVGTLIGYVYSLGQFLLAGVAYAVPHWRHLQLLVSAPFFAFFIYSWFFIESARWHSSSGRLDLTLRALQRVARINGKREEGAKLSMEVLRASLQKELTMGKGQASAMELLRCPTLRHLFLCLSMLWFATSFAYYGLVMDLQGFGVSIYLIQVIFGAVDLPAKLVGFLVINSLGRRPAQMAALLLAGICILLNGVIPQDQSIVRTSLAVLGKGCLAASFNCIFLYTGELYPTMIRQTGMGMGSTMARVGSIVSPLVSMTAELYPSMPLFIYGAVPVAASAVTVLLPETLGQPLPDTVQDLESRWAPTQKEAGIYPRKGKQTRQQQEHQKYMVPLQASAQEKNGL
Protocol: as §1, with “inhibitor diclofenac (100 μM) was” for “inhibitor for”, “control (PC).” for “control (PC) was losartan (200 μM).”, “the Michalis-Menten” for “the Michaelis-Menten”
as §2, with “7.4 […]” for “7.4”
The IC50 value for the test item is determined by fitting the Hill equation in the following form: […]

substrate of PepT1 (uptake) (PepT1 [1]): not a substrate
IC50 (PepT1 [2]): 0.74 mM
IC50 (OAT1 (SLC22A6)): 6.2 mM
SMILES: CC(=O)N[C@@H](CC(C)C)C(=O)O [N-acetyl-L-leucine]
